The results in this text go back to patent US9204653B2, “5-fluoro pyrimidine derivatives” (DOW AGROSCIENCES LLC, priority 2008, dated 2015).

Read-outs that look alike come from different tables or passages of the source.

For this assay, the system named is Mycosphaerella graminicola; Anamorph: Septoria tritici; Bayer Code SEPTTR. Nature of the assay: Leaf blotch of wheat, foliar fungicide treatment, one day protectant (1DP) or three day curative (3DC). The format is in vivo, Septoria tritici on wheat plants (variety Yuma). Conditions: Zymoseptoria tritici.
[1] abbreviates: 24 h, one day protectant (1DP), 25 ppm, rating of percent disease control, read-out: SETTTR 1DP 25 ppm.
Setting [2] is: 24 h, one day protectant (1DP), rating of percent disease control, read-out: SEPTTR 1DP 100 ppm.
The mark [3] stands for this setting: 72 h, three day curative (3DC), 25 ppm, rating of percent disease control, read-out: SEPTTR 3DC 25 ppm.
Where [4] appears, read: 72 h, three day curative (3DC), rating of percent disease control, read-out: SEPTTR 3DC 100 ppm.
The mark [5] stands for this setting: 24 h, one day protectant (1DP), 25 ppm, percent disease control rating, read-out: SETTTR 1DP 25 ppm.
Setting [6] is: 24 h, one day protectant (1DP), percent disease control rating, read-out: SEPTTR 1DP 100 ppm.
The mark [7] stands for this setting: 72 h, three day curative (3DC), 25 ppm, percent disease control rating, read-out: SEPTTR 3DC 25 ppm.
[8] abbreviates: 72 h, three day curative (3DC), percent disease control rating, read-out: SEPTTR 3DC 100 ppm.
The mark [9] stands for this setting: 24 h, one day protectant (1DP), 25 ppm (first 1DP column), percent control rating, read-out: SETTTR 1DP 25 ppm.
The mark [10] stands for this setting: 24 h, one day protectant (1DP), 25 ppm as printed (second 1DP column), percent control rating, read-out: SETTTR 1DP 25 ppm.
[11] abbreviates: 72 h, three day curative (3DC), 25 ppm, percent control rating, read-out: SEPTTR 3DC 25 ppm.
Setting [12] is: 72 h, three day curative (3DC), percent control rating, read-out: SEPTTR 3DC 100 ppm.
Setting [13] is: 24 h, % disease control rating, one day protectant.
Where [14] appears, read: 24 h, one day protectant, 25 ppm, rating of percent disease control, read-out: SETTTR 1DP 25 ppm.
Setting [15] is: 24 h, one day protectant, rating of percent disease control, read-out: SEPTTR 1DP 100 ppm.
Where [16] appears, read: 72 h, three day curative, 25 ppm, rating of percent disease control, read-out: SEPTTR 3DC 25 ppm.
Setting [17] is: 72 h, three day curative, rating of percent disease control, read-out: SEPTTR 3DC 100 ppm.

`Cc1cccc(COc2ncc(F)c(N)n2)c1` [Compound 188]: the pest or weed control at 25 ppm runs as follows: under setting [1], 76 to 100%; under setting [3], 76 to 100%. For the same compound, the pest or weed control at 100 ppm runs as follows: under setting [2], 76 to 100%; under setting [4], 76 to 100%.
Turning to `Nc1nc(OCc2ccc(OC(F)F)cc2)ncc1F` [Compound 136], the pest or weed control at 25 ppm under setting [5] lay in the range of 76 to 100% and the pest or weed control at 25 ppm under setting [7] was 76 to 100%. The pest or weed control at 100 ppm fell in the range of 76 to 100% under setting [6] and 76 to 100% under setting [8].
Regarding `COc1ccccc1Oc1ncc(F)c(N)n1` [Compound 223], the pest or weed control at 25 ppm fell in the range of 76 to 100% under setting [1] and 76 to 100% under setting [3]. For the same compound, the pest or weed control at 100 ppm was in the range of 76 to 100% under setting [2] and 76 to 100% under setting [4].
On to `CN(C)/C=N/c1nc(OS(=O)(=O)c2ccccc2)ncc1F` [Compound 28, Benzenesulfonic acid 4-(dimethylamino-methyleneamino)-5-fluoro-pyrimidin-2-yl ester], for which the pest or weed control at 25 ppm runs as follows: under setting [5], 76 to 100%; under setting [7], 76 to 100%. The pest or weed control at 100 ppm by setting is: under setting [6], 76 to 100%; under setting [8], 76 to 100%.
As to `CCCCOc1cccc(C(C)Oc2ncc(F)c(N)n2)c1` (stereo not shown) [Compound 790], the pest or weed control at 25 ppm reads like this: under setting [1], 76 to 100%; under setting [3], 76 to 100%. Also, the pest or weed control at 100 ppm under setting [2] fell in the range of 76 to 100% and the pest or weed control at 100 ppm under setting [4] is 76 to 100%.
Take `CCCCCNC(=S)Nc1nc(OCc2ccc(C)cc2)ncc1F` [Compound 287]: the pest or weed control at 25 ppm runs as follows: under setting [1], 76 to 100%; under setting [3], 76 to 100%. The pest or weed control at 100 ppm fell in the range of 76 to 100% under setting [2] and 76 to 100% under setting [4].
As to `COc1cccc(COc2ncc(F)c(NC(=O)NCc3ccccc3F)n2)c1` [Compound 201], the pest or weed control at 25 ppm runs as follows: under setting [1], 0 to 25%; under setting [3], 0 to 25%. In addition, the pest or weed control at 100 ppm fell in the range of 0 to 25% under setting [2] and 0 to 25% under setting [4].
Take `CCc1ccccc1NNc1nc(OCc2ccc(C)cc2)ncc1F` [Compound 995]: the pest or weed control at 25 ppm reads like this: under setting [9], 0 to 25%; under setting [10], 26 to 50%; under setting [11], 0 to 25%. The pest or weed control at 100 ppm under setting [12] lay in the range of 0 to 25%.
For the compound `Nc1nc(OCc2ccc(F)c(Cl)c2)ncc1F` [Compound 547], the pest or weed control at 25 ppm fell in the range of 76 to 100% under setting [1] and 76 to 100% under setting [3]. The pest or weed control at 100 ppm is, setting by setting: under setting [2], 76 to 100%; under setting [4], 76 to 100%.
Consider `ON(Cc1ccccc1)c1nc(OCc2ccc(F)cc2)ncc1F` [Compound 235], for which the pest or weed control at 25 ppm under setting [1] lay within 76 to 100% and the pest or weed control at 25 ppm under setting [3] was 51 to 75%. Moreover, the pest or weed control at 100 ppm under setting [2] lay within 76 to 100% and the pest or weed control at 100 ppm under setting [4] lay within 76 to 100%.
Compound `Fc1cnc(OCc2cc(Cl)cc(Cl)c2)nc1NCc1cccs1` [Compound 814] yielded a pest or weed control at 200 ppm under setting [13] of 76 to 100%.
In the case of `OCNc1nc(OCc2cccs2)ncc1F` [Compound 196], the pest or weed control at 25 ppm lay within 76 to 100% under setting [1] and 76 to 100% under setting [3]. Moreover, the pest or weed control at 100 ppm by setting is: under setting [2], 76 to 100%; under setting [4], 76 to 100%.
Take `CCOC(=O)COC(=O)Nc1nc(OCc2cccc(F)c2)ncc1F` [Compound 199]: the pest or weed control at 25 ppm runs as follows: under setting [1], 0 to 25%; under setting [3], 51 to 75%. Further, the pest or weed control at 100 ppm under setting [2] was in the range of 76 to 100% and the pest or weed control at 100 ppm under setting [4] is 76 to 100%.
Turning to `Fc1ccc(COc2ncc(F)c(NNc3nccc(C(F)(F)F)n3)n2)cc1` [Compound 1043], the pest or weed control at 25 ppm under setting [9] is 0 to 25%, the pest or weed control at 25 ppm under setting [10] lay within 0 to 25% and the pest or weed control at 25 ppm under setting [11] is 0 to 25%. The pest or weed control at 100 ppm under setting [12] lay in the range of 0 to 25%.
Regarding `CCCCCCOc1ncc(F)c(NC(=O)Nc2ccsc2)n1` [Compound 774], the pest or weed control at 25 ppm under setting [1] was 0 to 25% and the pest or weed control at 25 ppm under setting [3] lay within 0 to 25%. Further, the pest or weed control at 100 ppm is, setting by setting: under setting [2], 0 to 25%; under setting [4], 0 to 25%.
Regarding `Fc1cnc(OCc2ccc(Cl)cc2Cl)nc1NCc1ccc(Cl)cc1` [Compound 942], where the note is “24 h, % disease control rating, one day protectant, 50 ppm”, the pest or weed control at 50 ppm is 76 to 100%. Also, under setting [13], the pest or weed control at 200 ppm was 76 to 100%.
As to `N#Cc1ccc(COc2ncc(F)c(N)n2)cc1` [Compound 74], the pest or weed control at 25 ppm was 51 to 75% under setting [5] and 0 to 25% under setting [7]. Also, the pest or weed control at 100 ppm under setting [6] lay in the range of 76 to 100% and the pest or weed control at 100 ppm under setting [8] is 0 to 25%.
As to `Cc1ccccc1COc1ncc(F)c(N)n1` [Compound 733], the pest or weed control at 25 ppm by setting is: under setting [14], 76 to 100%; under setting [16], 76 to 100%. Moreover, the pest or weed control at 100 ppm reads like this: under setting [15], 76 to 100%; under setting [17], 76 to 100%.
In the case of `Nc1nc(OCc2ccc(F)c(Br)c2)ncc1F` [Compound 156], the pest or weed control at 25 ppm lay within 76 to 100% under setting [5] and 76 to 100% under setting [7]. The pest or weed control at 100 ppm was 76 to 100% under setting [6] and 76 to 100% under setting [8].
With `COc1cccc(COc2ncc(F)c(NN3CCCCC3)n2)c1` [Compound 562], the pest or weed control at 25 ppm runs as follows: under setting [14], 0 to 25%; under setting [16], 0 to 25%. Further, the pest or weed control at 100 ppm under setting [15] fell in the range of 0 to 25% and the pest or weed control at 100 ppm under setting [17] was in the range of 26 to 50%.
As for `C=CCOc1ncc(F)c(NN)n1` [Compound 1059], the pest or weed control at 25 ppm reads like this: under setting [9], 0 to 25%; under setting [10], 0 to 25%; under setting [11], 0 to 25%. Besides, the pest or weed control at 100 ppm under setting [12] was 26 to 50%.
As to `CC(C)(C)C(=O)OCNc1nc(OCc2ccc(F)cc2)ncc1F` [Compound 19, 2,2-Dimethylpropionic acid[5-fluoro-2-(4-fluorobenzyloxy)pyrimidin-4-ylamino]methyl ester], the pest or weed control at 25 ppm under setting [5] fell in the range of 76 to 100% and the pest or weed control at 25 ppm under setting [7] was 51 to 75%. Moreover, the pest or weed control at 100 ppm runs as follows: under setting [6], 76 to 100%; under setting [8], 76 to 100%.
For `CN(C)/C=N/c1nc(OC(=O)C2CCCCC2)ncc1F` [Compound 247], the pest or weed control at 25 ppm is, setting by setting: under setting [1], 76 to 100%; under setting [3], 76 to 100%. Moreover, the pest or weed control at 100 ppm under setting [2] fell in the range of 76 to 100% and the pest or weed control at 100 ppm under setting [4] lay within 76 to 100%.
Turning to `C/C(=N\Oc1ncc(F)c(N)n1)c1ccc(S(=O)(=O)N(C)C)cc1` [Compound 1002], the pest or weed control at 25 ppm was in the range of 51 to 75% under setting [9], 76 to 100% under setting [10] and 26 to 50% under setting [11]. Besides, the pest or weed control at 100 ppm under setting [12] is 51 to 75%.
For the compound `COc1cccc(COc2ncc(F)c(NS(=O)(=O)c3ccccc3)n2)c1` [Compound 1013], the pest or weed control at 25 ppm is, setting by setting: under setting [9], 0 to 25%; under setting [10], 0 to 25%; under setting [11], 0 to 25%. For the same compound, the pest or weed control at 100 ppm under setting [12] was 0 to 25%.
`COc1ccc(COc2ncc(F)c(NC(=O)NCc3ccccc3F)n2)cc1F` [Compound 464]: the pest or weed control at 25 ppm by setting is: under setting [1], 0 to 25%; under setting [3], 0 to 25%. The pest or weed control at 100 ppm reads like this: under setting [2], 0 to 25%; under setting [4], 26 to 50%.
As to `CC(C)N(O)c1nc(OCc2ccc(F)cc2)ncc1F` [Compound 147], the pest or weed control at 25 ppm runs as follows: under setting [5], 0 to 25%; under setting [7], 26 to 50%. In addition, the pest or weed control at 100 ppm under setting [6] lay in the range of 51 to 75% and the pest or weed control at 100 ppm under setting [8] fell in the range of 26 to 50%.
